# Results from patent US12691112B2, “FGFR tyrosine kinase inhibitors for the treatment of urothelial carcinoma” (Janssen Pharmaceutica NV, priority 2019, dated 2026).
# Like-named read-outs stand apart in the source and are kept apart here.
# Tested on: subjects with metastatic or surgically unresectable urothelial cancer
# Conditions: all-causality
# Procedure: Study treatment was administered on 28-day cycles. […] Patients were randomized 1:1 to 28-day cycles to the following 2 regimens until a regimen was selected for further study: Regimen 1 (10 mg once daily intermittent (7 days on/7 days); Regimen 2 (6 mg once daily continuous). Randomization was stratified according to performance status (0 to 1 vs. 2), hemoglobin value (<10 vs. ≥10 g per dl), FGFR alteration type (mutation vs. fusion), prior treatment status (chemotherapy-resistant vs. chemotherapy naïve), and disease distribution (presence or absence of visceral [liver, lung, bone]metastases). Starting dose selection was based on phase 1 efficacy and tolerability.
# Based on interim analysis and pharmacokinetic-pharmacodynamic modeling of serum phosphate levels, starting dose was increased to 8 mg per day continuous (Regimen 3). Thus, after interim analysis, this became a single-arm study. […] Treatment continued until disease progression or unacceptable adverse event(s) per investigator.
# Safety was evaluated based on clinical laboratory tests, physical exams, electrocardiograms, and ophthalmology examinations. Adverse events and abnormalities were assessed by investigator and graded per NCI CTCAE v.4.0
# Prophylactic measures were taken to minimize risk of common adverse events related to FGFR inhibition. To reduce risk of hyperphosphatemia, a low-phosphate diet was recommended for all patients (600 to 800 mg of dietary phosphate intake per day). To reduce the risk of skin effects, the application of alcohol-free emollient moisturizing cream and avoidance of unnecessary exposure to sunlight, soap, perfumed products, and hot baths was recommended. Patients were asked to keep their fingers and toes clean and nails trimmed to reduce risk of nail effects.
# Additional ophthalmology examinations were performed if clinically indicated.
smiles,measurement,setting,value
"COc1cc(OC)cc(N(CCNC(C)C)c2ccc3ncc(-c4cnn(C)c4)nc3c2)c1 [erdafitinib, N-(3,5-dimethoxy-phenyl)-N′-(1-methylethyl)-N-[3-(1-methyl-1H-pyrazol-4-yl)quinoxalin-6-yl]ethane-1,2-diamine]","Constipation, grade ≥ 3","8 mg continuous, n = 99",1 no.
same,"Decreased appetite, any grade","8 mg continuous, n = 99",38 no.
same,"Decreased appetite, grade 1","8 mg continuous, n = 99",18 no.
same,"Decreased appetite, grade 2","8 mg continuous, n = 99",20 no.
same,"Decreased appetite, grade ≥ 3","8 mg continuous, n = 99",0 no.
same,"Diarrhea, any grade","8 mg continuous, n = 99",50 no.
same,"Diarrhea, grade 1","8 mg continuous, n = 99",31 no.
same,"Diarrhea, grade 2","8 mg continuous, n = 99",15 no.
same,"Diarrhea, grade ≥ 3","8 mg continuous, n = 99",4 no.
same,"Dry eye, any grade","8 mg continuous, n = 99",19 no.
same,"Dry eye, grade 1","8 mg continuous, n = 99",14 no.
same,"Dry eye, grade 2","8 mg continuous, n = 99",4 no.
same,"Dry eye, grade ≥ 3","8 mg continuous, n = 99",1 no.
same,"Dry mouth, any grade","8 mg continuous, n = 99",45 no.
same,"Dry mouth, grade 1","8 mg continuous, n = 99",34 no.
same,"Dry mouth, grade 2","8 mg continuous, n = 99",11 no.
same,"Dry mouth, grade ≥ 3","8 mg continuous, n = 99",0 no.
same,"Dry skin, any grade","8 mg continuous, n = 99",32 no.
same,"Dry skin, grade 1","8 mg continuous, n = 99",24 no.
same,"Dry skin, grade 2","8 mg continuous, n = 99",8 no.
same,"Dry skin, grade ≥ 3","8 mg continuous, n = 99",0 no.
same,"Dysgeusia, any grade","8 mg continuous, n = 99",37 no.
same,"Dysgeusia, grade 1","8 mg continuous, n = 99",23 no.
same,"Dysgeusia, grade 2","8 mg continuous, n = 99",13 no.
same,"Dysgeusia, grade ≥ 3","8 mg continuous, n = 99",1 no.
same,"Dyspepsia, any grade","8 mg continuous, n = 99",11 no.
same,"Dyspepsia, grade 1","8 mg continuous, n = 99",10 no.
same,"Dyspepsia, grade 2","8 mg continuous, n = 99",1 no.
same,"Dyspepsia, grade ≥ 3","8 mg continuous, n = 99",0 no.
same,"Dyspnea, any grade","8 mg continuous, n = 99",8 no.
same,"Dyspnea, grade 1","8 mg continuous, n = 99",4 no.
same,"Dyspnea, grade 2","8 mg continuous, n = 99",2 no.
same,"Dyspnea, grade ≥ 3","8 mg continuous, n = 99",2 no.
same,"Fatigue, any grade","8 mg continuous, n = 99",32 no.
same,"Fatigue, grade 1","8 mg continuous, n = 99",12 no.
same,"Fatigue, grade 2","8 mg continuous, n = 99",18 no.
same,"Fatigue, grade ≥ 3","8 mg continuous, n = 99",2 no.
same,"Hand-foot syndrome, any grade","8 mg continuous, n = 99",23 no.
same,"Hand-foot syndrome, grade 1","8 mg continuous, n = 99",6 no.
same,"Hand-foot syndrome, grade 2","8 mg continuous, n = 99",12 no.
same,"Hand-foot syndrome, grade ≥ 3","8 mg continuous, n = 99",5 no.
same,"Hematuria, any grade","8 mg continuous, n = 99",10 no.
same,"Hematuria, grade 1","8 mg continuous, n = 99",7 no.
same,"Hematuria, grade 2","8 mg continuous, n = 99",1 no.
same,"Hematuria, grade ≥ 3","8 mg continuous, n = 99",2 no.
same,"Hyperphosphatemia, any grade","8 mg continuous, n = 99",76 no.
same,"Hyperphosphatemia, grade 1","8 mg continuous, n = 99",53 no.
same,"Hyperphosphatemia, grade 2","8 mg continuous, n = 99",21 no.
same,"Hyperphosphatemia, grade ≥ 3","8 mg continuous, n = 99",2 no.
same,"Hypomagnesemia, any grade","8 mg continuous, n = 99",10 no.
same,"Hypomagnesemia, grade 1","8 mg continuous, n = 99",9 no.
same,"Hypomagnesemia, grade 2","8 mg continuous, n = 99",1 no.
same,"Hypomagnesemia, grade ≥ 3","8 mg continuous, n = 99",0 no.
same,"Hyponatremia, any grade","8 mg continuous, n = 99",12 no.
same,"Hyponatremia, grade 1","8 mg continuous, n = 99",1 no.
same,"Hyponatremia, grade 2","8 mg continuous, n = 99",0 no.
same,"Hyponatremia, grade ≥ 3","8 mg continuous, n = 99",11 no.
same,"Insomnia, any grade","8 mg continuous, n = 99",7 no.
same,"Insomnia, grade 1","8 mg continuous, n = 99",4 no.
same,"Insomnia, grade 2","8 mg continuous, n = 99",3 no.
same,"Insomnia, grade ≥ 3","8 mg continuous, n = 99",0 no.
same,"Lacrimation increased, any grade","8 mg continuous, n = 99",11 no.
same,"Lacrimation increased, grade 1","8 mg continuous, n = 99",8 no.
same,"Lacrimation increased, grade 2","8 mg continuous, n = 99",3 no.
same,"Lacrimation increased, grade ≥ 3","8 mg continuous, n = 99",0 no.
same,"Nail dystrophy, any grade","8 mg continuous, n = 99",16 no.
same,"Nail dystrophy, grade 1","8 mg continuous, n = 99",5 no.
same,"Nail dystrophy, grade 2","8 mg continuous, n = 99",5 no.
same,"Nail dystrophy, grade ≥ 3","8 mg continuous, n = 99",6 no.
same,"Nausea, any grade","8 mg continuous, n = 99",20 no.
same,"Nausea, grade 1","8 mg continuous, n = 99",13 no.
same,"Nausea, grade 2","8 mg continuous, n = 99",6 no.
same,"Nausea, grade ≥ 3","8 mg continuous, n = 99",1 no.
same,"Onycholysis, any grade","8 mg continuous, n = 99",18 no.
same,"Onycholysis, grade 1","8 mg continuous, n = 99",6 no.
same,"Onycholysis, grade 2","8 mg continuous, n = 99",10 no.
same,"Onycholysis, grade ≥ 3","8 mg continuous, n = 99",2 no.
same,"Onychomadesis, any grade","8 mg continuous, n = 99",7 no.
same,"Onychomadesis, grade 1","8 mg continuous, n = 99",2 no.
same,"Onychomadesis, grade 2","8 mg continuous, n = 99",5 no.
same,"Onychomadesis, grade ≥ 3","8 mg continuous, n = 99",0 no.
same,"Oropharyngeal pain, any grade","8 mg continuous, n = 99",10 no.
same,"Oropharyngeal pain, grade 1","8 mg continuous, n = 99",8 no.
same,"Oropharyngeal pain, grade 2","8 mg continuous, n = 99",1 no.
same,"Oropharyngeal pain, grade ≥ 3","8 mg continuous, n = 99",1 no.
same,"Pain in extremity, any grade","8 mg continuous, n = 99",12 no.
same,"Pain in extremity, grade 1","8 mg continuous, n = 99",10 no.
same,"Pain in extremity, grade 2","8 mg continuous, n = 99",2 no.
same,"Pain in extremity, grade ≥ 3","8 mg continuous, n = 99",0 no.
same,"Paronychia, any grade","8 mg continuous, n = 99",17 no.
same,"Paronychia, grade 1","8 mg continuous, n = 99",3 no.
same,"Paronychia, grade 2","8 mg continuous, n = 99",11 no.
same,"Paronychia, grade ≥ 3","8 mg continuous, n = 99",3 no.
same,"Peripheral edema, any grade","8 mg continuous, n = 99",9 no.
same,"Peripheral edema, grade 1","8 mg continuous, n = 99",5 no.
same,"Peripheral edema, grade 2","8 mg continuous, n = 99",3 no.
same,"Peripheral edema, grade ≥ 3","8 mg continuous, n = 99",1 no.
same,"Pyrexia, any grade","8 mg continuous, n = 99",13 no.
same,"Pyrexia, grade 1","8 mg continuous, n = 99",8 no.
same,"Pyrexia, grade 2","8 mg continuous, n = 99",5 no.
same,"Pyrexia, grade ≥ 3","8 mg continuous, n = 99",0 no.
same,"Retinal detachment, any grade","8 mg continuous, n = 99",5 no.
same,"Retinal detachment, grade 1","8 mg continuous, n = 99",3 no.
same,"Retinal detachment, grade 2","8 mg continuous, n = 99",2 no.
same,"Retinal detachment, grade ≥ 3","8 mg continuous, n = 99",0 no.
same,"Stomatitis, any grade","8 mg continuous, n = 99",57 no.
same,"Stomatitis, grade 1","8 mg continuous, n = 99",21 no.
same,"Stomatitis, grade 2","8 mg continuous, n = 99",26 no.
same,"Stomatitis, grade ≥ 3","8 mg continuous, n = 99",10 no.
same,"Urinary tract infection, any grade","8 mg continuous, n = 99",16 no.
same,"Urinary tract infection, grade 1","8 mg continuous, n = 99",0 no.
same,"Urinary tract infection, grade 2","8 mg continuous, n = 99",11 no.
same,"Urinary tract infection, grade ≥ 3","8 mg continuous, n = 99",5 no.
same,"Vision blurred, any grade","8 mg continuous, n = 99",17 no.
same,"Vision blurred, grade 1","8 mg continuous, n = 99",10 no.
same,"Vision blurred, grade 2","8 mg continuous, n = 99",7 no.
same,"Vision blurred, grade ≥ 3","8 mg continuous, n = 99",0 no.
same,"Vomiting, any grade","8 mg continuous, n = 99",13 no.
same,"Vomiting, grade 1","8 mg continuous, n = 99",10 no.
same,"Vomiting, grade 2","8 mg continuous, n = 99",1 no.
same,"Vomiting, grade ≥ 3","8 mg continuous, n = 99",2 no.
same,"Weight decreased, any grade","8 mg continuous, n = 99",15 no.
same,"Weight decreased, grade 1","8 mg continuous, n = 99",7 no.
same,"Weight decreased, grade 2","8 mg continuous, n = 99",8 no.
same,"Weight decreased, grade ≥ 3","8 mg continuous, n = 99",0 no.
same,"Abdominal pain, any grade","10 mg intermittent, n = 33",5 no.
same,"Abdominal pain, grade 1","10 mg intermittent, n = 33",2 no.
same,"Abdominal pain, grade 2","10 mg intermittent, n = 33",2 no.
same,"Abdominal pain, grade ≥ 3","10 mg intermittent, n = 33",1 no.
same,"Alanine aminotransferase increased, any grade","10 mg intermittent, n = 33",1 no.
same,"Alanine aminotransferase increased, grade 1","10 mg intermittent, n = 33",0 no.
same,"Alanine aminotransferase increased, grade 2","10 mg intermittent, n = 33",1 no.
same,"Alanine aminotransferase increased, grade ≥ 3","10 mg intermittent, n = 33",0 no.
same,"Alopecia, any grade","10 mg intermittent, n = 33",4 no.
same,"Alopecia, grade 1","10 mg intermittent, n = 33",2 no.
same,"Alopecia, grade 2","10 mg intermittent, n = 33",2 no.
same,"Alopecia, grade ≥ 3","10 mg intermittent, n = 33",0 no.
same,"Anemia, any grade","10 mg intermittent, n = 33",8 no.
same,"Anemia, grade 1","10 mg intermittent, n = 33",1 no.
same,"Anemia, grade 2","10 mg intermittent, n = 33",1 no.
same,"Anemia, grade ≥ 3","10 mg intermittent, n = 33",6 no.
same,"Arthralgia, any grade","10 mg intermittent, n = 33",7 no.
same,"Arthralgia, grade 1","10 mg intermittent, n = 33",3 no.
same,"Arthralgia, grade 2","10 mg intermittent, n = 33",2 no.
same,"Arthralgia, grade ≥ 3","10 mg intermittent, n = 33",2 no.
same,"Aspartate aminotransferase increased, any grade","10 mg intermittent, n = 33",2 no.
same,"Aspartate aminotransferase increased, grade 1","10 mg intermittent, n = 33",2 no.
same,"Aspartate aminotransferase increased, grade 2","10 mg intermittent, n = 33",0 no.
same,"Aspartate aminotransferase increased, grade ≥ 3","10 mg intermittent, n = 33",0 no.
same,"Asthenia, any grade","10 mg intermittent, n = 33",10 no.
same,"Asthenia, grade 1","10 mg intermittent, n = 33",5 no.
same,"Asthenia, grade 2","10 mg intermittent, n = 33",3 no.
same,"Asthenia, grade ≥ 3","10 mg intermittent, n = 33",2 no.
same,"Back pain, any grade","10 mg intermittent, n = 33",5 no.
same,"Back pain, grade 1","10 mg intermittent, n = 33",1 no.
same,"Back pain, grade 2","10 mg intermittent, n = 33",1 no.
same,"Back pain, grade ≥ 3","10 mg intermittent, n = 33",3 no.
same,"Blood creatinine increased, any grade","10 mg intermittent, n = 33",4 no.
same,"Blood creatinine increased, grade 1","10 mg intermittent, n = 33",3 no.
same,"Blood creatinine increased, grade 2","10 mg intermittent, n = 33",1 no.
same,"Blood creatinine increased, grade ≥ 3","10 mg intermittent, n = 33",0 no.
same,"Conjunctivitis, any grade","10 mg intermittent, n = 33",4 no.
same,"Conjunctivitis, grade 1","10 mg intermittent, n = 33",3 no.
same,"Conjunctivitis, grade 2","10 mg intermittent, n = 33",1 no.
same,"Conjunctivitis, grade ≥ 3","10 mg intermittent, n = 33",0 no.
same,"Constipation, any grade","10 mg intermittent, n = 33",14 no.
same,"Constipation, grade 1","10 mg intermittent, n = 33",8 no.
same,"Constipation, grade 2","10 mg intermittent, n = 33",6 no.
same,"Constipation, grade ≥ 3","10 mg intermittent, n = 33",0 no.
same,"Decreased appetite, any grade","10 mg intermittent, n = 33",11 no.
same,"Decreased appetite, grade 1","10 mg intermittent, n = 33",4 no.
same,"Decreased appetite, grade 2","10 mg intermittent, n = 33",6 no.
